Laboratory results reported in PubChem BioAssay AID2649 (Southern Research Specialized Biocontainment Screening …, 2010).
The source made the active and inactive calls.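 How the source made its calls: active means lowest viability as percent of untreated cell control, measured with 5% serum, under 70% cytotoxic; inactive means the rest.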

Key:
[1] = test system: MAGI-CCR5 HeLa cells viability, MTS, 5% serum; experiment: MAGI-CCR5 HeLa cell viability loss – MTS, 5% and 10% serum, cytotoxicity control for HIV-1 antiviral lead project, SAR follow-up (AID 2649)
[2] = test system: MAGI-CCR5 HeLa cells viability, MTS, 10% serum; experiment: as above

SMILES	CC50 [1]	CC50 [2] [µM]
Cc1c2c(=O)n(-c3nc4ccccc4s3)nc-2cc(O)n1Cc1ccccc1	> 100 µM (inactive)	> 100
COc1cc(/C=N/NS(=O)(=O)c2ccc3ccccc3c2)ccc1OCc1ccc(C(=O)O)cc1	> 100 µM (inactive)	> 100
CCC(C)(C)C1CCc2c(sc(NC(=O)c3ccccc3C(=O)O)c2C#N)C1 (stereo not drawn)		> 100
O=C(N/N=C/c1c(O)n(C2CCCCC2)c(=S)[nH]c1=O)c1ccccc1O	> 100 µM (inactive)	> 100
N#C/C(=C\c1ccc(OCc2ccc(Cl)cc2)cc1)C(=O)Nc1cccc(C(=O)O)c1	> 100 µM (inactive)	> 100
O=C(O)CCCN1C(=O)/C(=C/c2ccc(-c3nc4ccccc4s3)o2)SC1=S	> 100 µM (inactive)	> 100
O=C1NC(=S)N(c2ccc(F)cc2)C(=O)/C1=C\c1ccoc1		> 100
CCC(Sc1nc2ccsc2c(=O)n1Cc1ccc(C(=O)O)cc1)C(=O)Nc1ccc(C)c(Cl)c1 (stereo not drawn)	> 100 µM (inactive)	> 100
COc1cc(/C=C2\SC(=O)N(c3ccccc3Cl)C2=O)cc([N+](=O)[O-])c1O		> 100
CC(C)NC(=O)c1sc(=S)n2c1[nH]c(=O)c1ccc(C(=O)NCCc3ccc(Cl)cc3)cc12	> 100 µM (inactive)	> 100
O=[N+]([O-])c1cc([N+](=O)[O-])c2oc(-c3ccccc3)c(Br)c2c1O	38.7 µM	> 100
CCOC(=O)C1=C(C)N=c2sc(=Cc3ccc(OCC(=O)O)cc3)c(=O)n2C1c1ccc(OC(C)C)cc1 (stereo not drawn)		> 100
COC(=O)c1sc(-c2ccc(C(C)(C)C)cc2)cc1NC(=O)c1ccccc1C(=O)O	88.7 µM	> 100
N#C/C(=C\c1ccc(O)c([N+](=O)[O-])c1)c1nc2ccccc2s1	> 100 µM (inactive)	> 100
CCOC(=O)c1sc(N2C(=O)C(O)=C(C(=O)c3ccc(C)o3)C2c2cccc([N+](=O)[O-])c2)nc1C (stereo not drawn)	> 100 µM (inactive)	> 100
Oc1c(Cl)cc(Cl)c(Cl)c1Cc1c(O)c(Cl)cc(Cl)c1Cl	56.5 µM	> 100
Cc1c(Cl)cccc1NS(=O)(=O)c1ccc2c(c1)C1C=CCC1C(c1ccc(C(=O)O)cc1)N2 (stereo not drawn)	71.7 µM	> 100
CC(C)(C)c1cc(-c2csc(Nc3ccccc3)[n+]2Cc2ccc(C(=O)O)cc2)cc(C(C)(C)C)c1O	54.9 µM	62.4
CSc1nnc(-c2ccccc2N=Cc2c(C)[nH]n(-c3ccc4ccccc4c3)c2=O)c(=O)[nH]1	> 100 µM (inactive)	> 100
O=C(O)c1ccccc1N=Nc1c(O)[nH]c2ccc([N+](=O)[O-])cc12	> 100 µM (inactive)	> 100
CCOc1cc(/C=C2\SC(=O)N(CC(=O)Nc3ccccc3F)C2=O)cc([N+](=O)[O-])c1O	> 100 µM (inactive)	> 100
